How the values were obtained:
Botrytis cinerea = assay: In vivo fungicidal activity: Pepper Botrytis (PB); details: 200 ppm, sprayed before inoculation; also: ranges in brackets are in %
Pythium ultimum = assay: In vitro fungicidal activity: growth inhibition (PYTH UL); type: cell-based; details: 25 ppm, 3-7 days at 22° C., nutrient broth; also: ranges in brackets are in %
Description: (§1) Test compounds are dissolved in acetone then diluted with deionize water (9 parts water: 1 part acetone), and dispersed into cell well plates containing a suspension of ground fungal mycelium in a nutrient broth resulting in a final concentration of 25 ppm of the test compound. Assay plates are incubated for 3-7 days at 22° C. Growth inhibition is measured visually and is rated using the following scale: […]

Rhizoctonia solani = assay: In vitro fungicidal activity: growth inhibition (RHIZ SO); type: cell-based; details: 25 ppm, 3-7 days at 22° C., nutrient broth; also: ranges in brackets are in %
Description: as §1

Venturia inaequalis = assay: In vivo fungicidal activity: Apple Scab (AS); details: 200 ppm, sprayed before inoculation; also: ranges in brackets are in %
Alternaria solani = assay: In vivo fungicidal activity: Tomato Early Blight (TEB); details: 200 ppm, sprayed before inoculation; also: ranges in brackets are in %
[1] = tested on: Erysiphe graminis f. sp. tritici; assay: In vivo fungicidal activity: Wheat Powdery Mildew (WPM); details: 200 ppm, sprayed before inoculation; also: ranges in brackets are in %
[2] = tested on: Fusarium oxysporium f. sp. cucumerinum; assay: In vitro fungicidal activity: growth inhibition (FUS OXC); type: cell-based; details: 25 ppm, 3-7 days at 22° C., nutrient broth; also: ranges in brackets are in %
Description: as §1

[3] = tested on: Pseudocercosporella herpotrichoides; assay: In vitro fungicidal activity: growth inhibition (PSDC HE); type: cell-based; details: 25 ppm, 3-7 days at 22° C., nutrient broth; also: ranges in brackets are in %
Description: as §1

Cercospora beticola = assay: In vivo fungicidal activity: Sugar Beet Cercospora (SBC); details: 200 ppm, sprayed before inoculation; also: ranges in brackets are in %
Plasmopara viticola = assay: In vivo fungicidal activity: Grape Downy Mildew (GDM); details: 200 ppm, sprayed before inoculation; also: ranges in brackets are in %
[4] = tested on: Pyricularia grisea f. sp. oryzae; type: in vivo; details: 200 ppm, sprayed before inoculation, Rice Blast
Septoria nodorum = assay: In vivo fungicidal activity: Wheat Septoria nodorum Blotch (WSN); details: 200 ppm, sprayed before inoculation
Description: Test compounds are dissolved in acetone and diluted with deionized water (95 parts water to 5 parts acetone) containing 0.05% TWEEN 20®, a polyoxyethylene sorbitan monolaurate surfactant manufactured by Atlas Chemical Industries, to give a concentration of 200 ppm.
The plants are sprayed with the test solutions, dried and inoculated with fungi later the same day. When disease symptom development is optimal, the plants are rated for disease control according to the rating scale shown below. Each test contains inoculated treated plants, inoculated untreated plants and a inoculated plants treated with reference fungicides.

| SMILES | disease control rating, PB (Botrytis cinerea) | growth inhibition rating, PYTH UL (Pythium ultimum) | growth inhibition rating, RHIZ SO (Rhizoctonia solani) | disease control rating, AS (Venturia inaequalis) | disease control rating, TEB (Alternaria solani) | disease control rating, WPM [1] | growth inhibition rating, FUS OXC [2] | growth inhibition rating, PSDC HE [3] | disease control rating, SBC (Cercospora beticola) | disease control rating, GDM (Plasmopara viticola) | disease control rating, RB [4] | disease control rating, WSN (Septoria nodorum) |
| --- | --- | --- | --- | --- | --- | --- | --- | --- | --- | --- | --- | --- |
| CC(C)(C)C1CCC2(CCC(NC3CCCC3)C2)CC1 (stereo not drawn) [Example 10] | 6 (75-89) | 9 (100) | 9 (100) | 8 (96-99) | 2 (15-29) | 6 (75-89) | 0 (0) | 9 (100) | 6 (75-89) | 5 (60-74) | 0 (0) | 7 (90-95) |
| CC1CCC(NC2CCC3(CCC(C(C)(C)C)CC3)C2)CC1 (stereo not drawn) [Example 7] | 7 (90-95) | 7 (90-99) | 9 (100) | 4 (45-59) | 4 (45-59) | 7 (90-95) | 0 (0) | 7 (90-99) | 8 (96-99) | 3 (30-44) | 0 (0) | 7 (90-95) |
| CC1CC(C)CN(C2CCC3(CCC(C(C)(C)C)CC3)C2)C1 (stereo not drawn) [Example 5] | 9 (100) | 0 (0) | 0 (0) | 6 (75-89) | 0 (0) | 8 (96-99) | 0 (0) | 0 (0) | 7 (90-95) | 5 (60-74) | 0 (0) | 4 (45-59) |
| CN(C1CCCCC1)C1CCC2(CCC(C(C)(C)C)CC2)C1 (stereo not drawn) [Example 9] | 8 (96-99) | 7 (90-99) | 9 (100) | 8 (96-99) | 0 (0) | 7 (90-95) | 0 (0) | 7 (90-99) | 4 (45-59) | 2 (15-29) | 0 (0) | 6 (75-89) |
| CC(C)(C)C1CCC2(CCC(NC3CCCCC3)C2)CC1 (stereo not drawn) [Example 3] | 9 (100) | 1 (1-29) | 0 (0) | 8 (96-99) | 8 (96-99) | 8 (96-99) | 0 (0) | 0 (0) | 6 (75-89) | 5 (60-74) | 0 (0) | 8 (96-99) |
| C[C@@H]1CN(C2CCC3(CCC(C(C)(C)C)CC3)C2)C[C@H](C)O1 (stereo partly drawn) [Example 4] | 9 (100) | 0 (0) | 0 (0) | 0 (0) | 0 (0) | 9 (100) | 0 (0) | 0 (0) | 7 (90-95) | 0 (0) | 0 (0) | 7 (90-95) |
| CC1CCN(C2CCC3(CCC(C(C)(C)C)CC3)C2)CC1 (stereo not drawn) [Example 1] | 8 (96-99) | 7 (90-99) | 9 (100) | 6 (75-89) | 0 (0) | 7 (90-95) | 0 (0) | 7 (90-99) | 6 (75-89) | 9 (100) | 0 (0) | 7 (90-95) |
| CC1CCCC(NC2CCC3(CCC(C(C)(C)C)CC3)C2)C1 (stereo not drawn) [Example 6] | 4 (45-59) | 7 (90-99) | 9 (100) | 6 (75-89) | 7 (90-95) | 3 (30-44) | 0 (0) | 7 (90-99) | 4 (45-59) | 5 (60-74) | 7 (90-95) | 7 (90-95) |
| CC(C)(C)C1CCC2(CCC(NCc3ccc(Cl)cc3)C2)CC1 (stereo not drawn) [Example 12] | 7 (90-95) | 0 (0) | 9 (100) | 7 (90-95) | 0 (0) | 5 (60-74) | 0 (0) | 9 (100) | 0 (0) | 0 (0) | 0 (0) | 0 (0) |
| CCCCC(CC)NC1CCC2(CCC(C(C)(C)C)CC2)C1 (stereo not drawn) [Example 2] | 9 (100) | 9 (100) | 7 (90-99) | 8 (96-99) | 0 (0) | 8 (96-99) | 0 (0) | 9 (100) | 4 (45-59) | 8 (96-99) | 0 (0) | 0 (0) |
| CC(C)(C)C1CCC2(CCC(NC3CCCCCC3)C2)CC1 (stereo not drawn) [Example 11] | 8 (96-99) | 0 (0) | 9 (100) | 7 (90-95) | 5 (60-74) | 6 (75-89) | 0 (0) | 9 (100) | 5 (60-74) | 6 (75-89) | 0 (0) | 6 (75-89) |
| CC(C)CNC1CCC2(CCC(C(C)(C)C)CC2)C1 (stereo not drawn) [Example 8] | 6 (75-89) | 7 (90-99) | 9 (100) | 8 (96-99) | 0 (0) | 5 (60-74) | 0 (0) | 7 (90-99) | 6 (75-89) | 0 (0) | 0 (0) | 4 (45-59) |

Source: US5849802A, “Fungicidal spirocyclic amines” (American Cyanamid Company, priority 1996, dated 1998)
